Data as given in ChEMBL document CHEMBL3627662, “Ligand-Orientation Based Fragment Selection in STD NMR Screening” (J Med Chem, 2015).
Values belong to the compound of their own block, whether it stands above or below them. Calls of active or inactive are those of the source. No cut-off for these calls is given here.

How the values were obtained:
[1] = molecular target: T1, Glycogen phosphorylase, muscle form (Oryctolagus cuniculus) (UniProt P00489); assay: Binding affinity to rabbit muscle glycogen phosphorylase by STD NMR spectrometric analysis
T1 sequence (whole entry): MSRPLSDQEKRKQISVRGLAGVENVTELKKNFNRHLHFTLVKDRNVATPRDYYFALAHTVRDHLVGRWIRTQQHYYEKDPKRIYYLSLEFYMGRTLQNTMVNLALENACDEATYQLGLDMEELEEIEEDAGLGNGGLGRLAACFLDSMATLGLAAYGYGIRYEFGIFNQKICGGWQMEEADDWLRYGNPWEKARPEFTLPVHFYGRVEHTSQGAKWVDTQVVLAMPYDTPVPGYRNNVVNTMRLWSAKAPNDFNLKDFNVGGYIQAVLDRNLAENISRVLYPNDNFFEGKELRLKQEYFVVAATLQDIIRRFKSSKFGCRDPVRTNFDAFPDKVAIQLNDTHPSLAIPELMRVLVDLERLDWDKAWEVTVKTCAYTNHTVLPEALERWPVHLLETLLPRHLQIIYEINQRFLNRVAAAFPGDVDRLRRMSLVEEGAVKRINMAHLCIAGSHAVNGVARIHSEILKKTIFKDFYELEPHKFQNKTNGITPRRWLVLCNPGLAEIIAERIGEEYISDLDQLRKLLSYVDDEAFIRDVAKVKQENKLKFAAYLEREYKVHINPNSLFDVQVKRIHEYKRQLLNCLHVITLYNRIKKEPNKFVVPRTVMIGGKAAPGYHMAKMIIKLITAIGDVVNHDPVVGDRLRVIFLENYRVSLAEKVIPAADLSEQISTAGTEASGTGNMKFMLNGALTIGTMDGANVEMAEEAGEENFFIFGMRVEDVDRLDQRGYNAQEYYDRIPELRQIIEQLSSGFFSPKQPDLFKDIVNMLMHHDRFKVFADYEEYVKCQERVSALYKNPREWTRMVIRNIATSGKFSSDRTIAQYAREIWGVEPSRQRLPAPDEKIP

[2] = molecular target: Mitogen-activated protein kinase 3 (Homo sapiens) (UniProt P27361); assay: Binding affinity to ERK1 (unknown origin) expressed in Escherichia coli by STD NMR spectrometric analysis
[3] = molecular target: T1, Glycogen phosphorylase, muscle form (Oryctolagus cuniculus); assay: Binding affinity to rabbit muscle glycogen phosphorylase measured for 0.5 to 4 secs by STD NMR spectrometric analysis
[4] = molecular target: T2, Peroxiredoxin-5, mitochondrial (Homo sapiens) (UniProt P30044); assay: Binding affinity to human PRDX5 expressed in Escherichia coli by STD NMR spectrometric analysis
T2 sequence (whole entry): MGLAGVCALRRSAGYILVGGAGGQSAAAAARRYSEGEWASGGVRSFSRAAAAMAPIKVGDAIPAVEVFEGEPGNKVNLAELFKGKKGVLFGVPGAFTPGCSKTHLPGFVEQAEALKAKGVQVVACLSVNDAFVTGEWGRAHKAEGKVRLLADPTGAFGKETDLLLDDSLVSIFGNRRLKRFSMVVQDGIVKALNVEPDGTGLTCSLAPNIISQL

[5] = molecular target: T2, Peroxiredoxin-5, mitochondrial (Homo sapiens); assay: Binding affinity to human PRDX5 expressed in Escherichia coli at ligand/protein ratio 120 measured over 0.5 to 4 secs by STD NMR spectrometric analysis
[6] = molecular target: T2, Peroxiredoxin-5, mitochondrial (Homo sapiens); assay: Binding affinity to human PRDX5 expressed in Escherichia coli at ligand/protein ratio 50 and 240 measured over 2 secs by STD NMR spectrometric analysis

Sequence of Mitogen-activated protein kinase 3 (Homo sapiens) (P27361 whole entry): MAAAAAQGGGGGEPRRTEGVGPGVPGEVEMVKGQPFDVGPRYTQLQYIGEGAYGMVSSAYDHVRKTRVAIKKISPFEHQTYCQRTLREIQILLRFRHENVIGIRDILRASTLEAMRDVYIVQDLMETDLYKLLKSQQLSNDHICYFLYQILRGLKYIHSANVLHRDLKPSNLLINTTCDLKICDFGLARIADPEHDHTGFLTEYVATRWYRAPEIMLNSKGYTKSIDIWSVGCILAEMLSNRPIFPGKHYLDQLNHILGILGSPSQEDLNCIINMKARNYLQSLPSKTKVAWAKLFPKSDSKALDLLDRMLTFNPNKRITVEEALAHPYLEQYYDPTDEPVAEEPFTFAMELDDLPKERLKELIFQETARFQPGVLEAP

Activity [1]: Active | Activity [2]: Active
SMILES: c1cnc2[nH]ccc2c1

SMILES: Oc1ccccc1-c1ccccc1
Activity [1]: Active

Activity [1]: Active
SMILES: Nc1nc2ncnc-2c[nH]1

Activity [3]: Active
SMILES: c1ccc2[nH]ccc2c1

Activity [4]: Active
SMILES: Oc1ccccc1Cc1ccccc1O

Activity [1]: Active
SMILES: O=C(O)c1cnc2ccccc2c1

Activity [5]: Active | Activity [6]: Active
SMILES: Cc1ccc(O)c(O)c1
